Experiments:
class III PI3K = class III PI3K (Mus musculus, UniProt Q6PF93); test: Inhibition of autophagosome formation in EV-treated BMDCs, IL-10
[1] = tested on: colonic lamina propria (cLP) cells; test: A2a blockade in antibiotic-pretreated mice given live or killed ASF519, flow cytometry of colonic lamina propria cells; type: in vivo, mouse; conditions: daily i.p. injection
[2] = tested on: fusion of autophagosomes with lysosomes; test: Inhibition of autophagosome-lysosome fusion in EV-treated BMDCs, IL-10

class III PI3K, sequence (Q6PF93 whole entry): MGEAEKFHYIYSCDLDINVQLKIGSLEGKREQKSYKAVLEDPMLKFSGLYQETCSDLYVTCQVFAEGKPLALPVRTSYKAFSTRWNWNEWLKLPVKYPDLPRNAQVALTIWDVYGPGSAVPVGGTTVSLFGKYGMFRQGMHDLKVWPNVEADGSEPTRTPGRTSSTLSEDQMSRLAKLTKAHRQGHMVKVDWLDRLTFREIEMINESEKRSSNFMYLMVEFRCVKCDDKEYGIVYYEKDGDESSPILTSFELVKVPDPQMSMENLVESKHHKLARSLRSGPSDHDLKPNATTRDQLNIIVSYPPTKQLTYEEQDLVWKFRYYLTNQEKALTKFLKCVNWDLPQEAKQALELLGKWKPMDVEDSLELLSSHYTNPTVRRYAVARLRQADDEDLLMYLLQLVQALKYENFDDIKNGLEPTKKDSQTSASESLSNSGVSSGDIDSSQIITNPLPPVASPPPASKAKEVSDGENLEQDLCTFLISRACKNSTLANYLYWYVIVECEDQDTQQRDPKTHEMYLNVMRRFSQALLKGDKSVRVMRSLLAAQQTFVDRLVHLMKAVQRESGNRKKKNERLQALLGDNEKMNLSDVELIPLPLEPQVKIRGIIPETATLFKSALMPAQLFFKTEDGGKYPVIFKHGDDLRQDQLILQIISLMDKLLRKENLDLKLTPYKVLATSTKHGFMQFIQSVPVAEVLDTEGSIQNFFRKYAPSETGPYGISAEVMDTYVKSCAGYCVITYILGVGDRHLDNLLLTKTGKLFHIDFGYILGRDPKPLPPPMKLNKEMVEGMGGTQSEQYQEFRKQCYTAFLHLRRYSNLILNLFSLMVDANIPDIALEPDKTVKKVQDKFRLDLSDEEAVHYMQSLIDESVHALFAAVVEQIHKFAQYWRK
class III PI3K, sequence (Q8VD65 whole entry partner): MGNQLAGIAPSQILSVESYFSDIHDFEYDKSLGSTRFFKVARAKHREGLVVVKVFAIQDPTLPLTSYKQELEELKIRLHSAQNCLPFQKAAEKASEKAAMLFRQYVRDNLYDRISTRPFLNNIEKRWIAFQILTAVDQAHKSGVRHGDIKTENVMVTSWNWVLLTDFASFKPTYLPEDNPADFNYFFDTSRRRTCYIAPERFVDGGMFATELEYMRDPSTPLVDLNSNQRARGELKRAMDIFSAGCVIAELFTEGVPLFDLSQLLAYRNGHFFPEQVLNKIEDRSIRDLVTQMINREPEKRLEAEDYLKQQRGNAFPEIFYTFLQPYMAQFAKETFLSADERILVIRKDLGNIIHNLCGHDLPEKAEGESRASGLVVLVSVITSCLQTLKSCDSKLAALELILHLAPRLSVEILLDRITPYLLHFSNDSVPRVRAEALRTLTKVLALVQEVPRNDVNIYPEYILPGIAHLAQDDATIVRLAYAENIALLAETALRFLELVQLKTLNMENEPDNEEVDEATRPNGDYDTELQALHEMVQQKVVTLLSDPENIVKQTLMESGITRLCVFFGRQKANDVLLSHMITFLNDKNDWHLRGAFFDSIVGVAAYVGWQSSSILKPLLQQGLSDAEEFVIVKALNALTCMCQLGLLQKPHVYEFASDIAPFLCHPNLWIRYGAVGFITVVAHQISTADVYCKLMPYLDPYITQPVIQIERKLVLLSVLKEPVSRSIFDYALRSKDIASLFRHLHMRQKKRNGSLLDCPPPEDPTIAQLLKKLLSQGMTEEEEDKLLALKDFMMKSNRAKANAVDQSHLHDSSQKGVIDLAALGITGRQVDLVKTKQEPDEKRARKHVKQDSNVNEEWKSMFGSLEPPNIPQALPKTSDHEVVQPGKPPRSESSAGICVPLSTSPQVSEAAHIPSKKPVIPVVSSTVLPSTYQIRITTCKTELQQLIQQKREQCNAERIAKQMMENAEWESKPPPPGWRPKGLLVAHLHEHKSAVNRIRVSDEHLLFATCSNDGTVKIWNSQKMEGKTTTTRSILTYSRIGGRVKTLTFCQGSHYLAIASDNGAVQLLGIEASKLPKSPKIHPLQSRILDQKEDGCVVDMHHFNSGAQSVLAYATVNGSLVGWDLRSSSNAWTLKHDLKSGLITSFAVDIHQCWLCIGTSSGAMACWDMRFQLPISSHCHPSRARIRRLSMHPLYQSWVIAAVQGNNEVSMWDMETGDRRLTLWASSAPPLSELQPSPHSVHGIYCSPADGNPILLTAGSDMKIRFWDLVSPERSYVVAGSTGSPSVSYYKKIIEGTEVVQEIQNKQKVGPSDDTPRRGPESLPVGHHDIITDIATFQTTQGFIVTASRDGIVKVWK
class III PI3K, sequence (O88597 whole entry partner): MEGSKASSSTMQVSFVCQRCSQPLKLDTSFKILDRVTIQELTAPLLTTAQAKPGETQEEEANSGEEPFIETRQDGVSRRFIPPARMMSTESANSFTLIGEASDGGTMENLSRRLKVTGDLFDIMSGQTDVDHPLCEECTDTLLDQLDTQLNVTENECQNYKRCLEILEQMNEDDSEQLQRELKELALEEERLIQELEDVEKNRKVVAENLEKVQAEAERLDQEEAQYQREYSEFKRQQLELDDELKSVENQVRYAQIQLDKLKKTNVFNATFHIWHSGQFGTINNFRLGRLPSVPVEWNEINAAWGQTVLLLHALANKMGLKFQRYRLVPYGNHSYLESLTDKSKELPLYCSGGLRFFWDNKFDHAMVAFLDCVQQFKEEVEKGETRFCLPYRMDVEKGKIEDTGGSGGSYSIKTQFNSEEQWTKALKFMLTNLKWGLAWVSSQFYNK
class III PI3K, sequence (Q8CDJ3 whole entry partner): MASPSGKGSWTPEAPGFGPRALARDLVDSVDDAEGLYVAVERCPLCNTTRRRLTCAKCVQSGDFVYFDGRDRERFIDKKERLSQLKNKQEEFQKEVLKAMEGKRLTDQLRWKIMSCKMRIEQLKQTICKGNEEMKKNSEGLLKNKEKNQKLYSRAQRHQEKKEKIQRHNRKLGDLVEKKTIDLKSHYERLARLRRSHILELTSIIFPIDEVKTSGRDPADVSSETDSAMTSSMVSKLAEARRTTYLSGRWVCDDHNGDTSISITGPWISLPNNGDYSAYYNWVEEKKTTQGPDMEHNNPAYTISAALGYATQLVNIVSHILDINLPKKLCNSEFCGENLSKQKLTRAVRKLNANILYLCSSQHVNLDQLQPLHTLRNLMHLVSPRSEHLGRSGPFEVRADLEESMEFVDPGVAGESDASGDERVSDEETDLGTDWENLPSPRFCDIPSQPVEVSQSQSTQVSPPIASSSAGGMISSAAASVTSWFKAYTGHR

## Cn1cnc(N)c2ncnc1-2 [3-methyladenine]
Class III PI3K
  effect on IL-10 induction of EV-treated BMDCs: efficiently blocked IL-10 induction

## Nc1nc(NCCc2ccc(O)cc2)nc2nc(-c3ccco3)nn12 [ZM241385]
[1]
  effect of A2a antagonist on ASF519-induced IL-10 producing DCs: significantly decreased
  effect of A2a blockage on ASF519-decreased B cells and CD11b+ CD45+ cells: restored

## CCN(CCO)CCCC(C)Nc1ccnc2cc(Cl)ccc12 (stereo not shown) [hydroxychloroquine]
[2]
  effect on IL-10 induction of EV-treated BMDCs: efficiently blocked IL-10 induction
